Data taken from patent US6806230B1, “Pyrimidine derivatives and herbicides containing them” (Kumiai Chemical Industry Co., Ltd., priority 1999, dated 2004).

Assays:
Type in all cases: in vivo
monochoria (Mo) [1] = assay: Test Example 1: herbicidal effects by flooded paddy field treatment; set-up: herbicidal effects, Mo (monochoria):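 0-5 growth inhibition grade; 5 = over 90%; 4 = 70-90%; 3 = 50-70%; 2 = 30-50%; 1 = 10-30%; 0 = under 10%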; conditions: for herbicidal effects, Mo (monochoria): dose 100 g active ingredient per 10 ares, examined on the 21st day after treatment, standards of Table 44; for Herbicidal effect index, Mo: dose 100 gai/10a, examined on 21st day after treatment, index 0-5 per Table 44;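 for Herbicidal effect index, Mo: 0-5 growth inhibition grade; 5 = over 90%; 4 = 70-90%; 3 = 50-70%; 2 = 30-50%; 1 = 10-30%; 0 = under 10%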
Summary of the method: (§1)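 Seeds sown in puddled paddy soil and flooded to 3 cm. Next day, a water-diluted wettable powder was dripped onto the water surface at 100 g active ingredient per 10 ares. Plants were grown in a greenhouse, and herbicidal effect was scored against a rating standard 21 days after treatment.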

barnyard grass (Eo) [2] = assay: as above; set-up: herbicidal effects, Eo (barnyard grass):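 0-5 growth inhibition grade; 5 = over 90%; 4 = 70-90%; 3 = 50-70%; 2 = 30-50%; 1 = 10-30%; 0 = under 10%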; conditions: for herbicidal effects, Eo (barnyard grass): dose 100 g active ingredient per 10 ares, examined on the 21st day after treatment, standards of Table 44; for Herbicidal effect index, Eo: dose 100 gai/10a, examined on 21st day after treatment, index 0-5 per Table 44
Summary of the method: as §1

green foxtail (Se) = assay: Test Example 2: herbicidal effects by upland soil treatment; conditions: dose 100 g active ingredient per 10 ares, examined on the 21st day after treatment, standards of Table 44;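 note: 0-5 growth inhibition grade; 5 = over 90%; 4 = 70-90%; 3 = 50-70%; 2 = 30-50%; 1 = 10-30%; 0 = under 10%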
Summary of the method: (§2)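 Pre-emergence test: barnyard grass and green foxtail sown in upland soil, then soil surface sprayed with wettable-powder formulation at 100 g active ingredient per 10 ares (100 l per 10 ares). Grown in greenhouse; herbicidal effect scored on a rating scale 21 days after treatment.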

monochoria (Mo) [3] = assay: Test Example 4: selectivity for a crop plant by flooded paddy field treatment; set-up: scale not given here; conditions: for Mo (herbicidal effect index): monochoria, dose 25 gai/10a, 21st day after treatment, index per Table 44; for Mo (herbicidal effects, index): dose 25 g active ingredient per 10 ares, examined on the 21st day after treatment
Summary of the method: (§3)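 Paddled paddy soil in pots sown with barnyard grass and monochoria, with second-leaf-stage rice transplanted, under 3 cm of water. Next day a diluted wettable powder was dripped onto the water at 25 g active ingredient per 10 ares; effects scored on a rating scale 21 days later in a greenhouse.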

rice (Or) = assay: as above; set-up: scale not given here; conditions: rice transplanted at second leaf stage; for Or (herbicidal effect index on crop): dose 25 gai/10a, 21st day after treatment, index per Table 44; for Or (effect on crop plant rice, index): dose 25 g active ingredient per 10 ares, examined on the 21st day after treatment
Summary of the method: as §3

barnyard grass (Eo) [4] = assay: as above; set-up: scale not given here; conditions: for Eo (herbicidal effect index): barnyard grass, dose 25 gai/10a, 21st day after treatment, index per Table 44; for Eo (herbicidal effects, index): dose 25 g active ingredient per 10 ares, examined on the 21st day after treatment
Summary of the method: as §3

barnyard grass (Ec) [5] = assay: Test Example 3: herbicidal effects by foliage treatment in upland field; set-up: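 0-5 growth inhibition grade; 5 = over 90%; 4 = 70-90%; 3 = 50-70%; 2 = 30-50%; 1 = 10-30%; 0 = under 10%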; conditions: dose 100 g active ingredient per 10 ares, examined on the 14th day after treatment
Summary of the method: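 Barnyard grass and green foxtail were grown in upland soil for 2 weeks in a greenhouse. A water-diluted wettable powder was sprayed over the foliage at 100 l per 10 ares, giving 100 g active ingredient per 10 ares. Herbicidal effect was scored on day 14 after treatment.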

barnyard grass (Ec) [6] = assay: Test Example 2: herbicidal effects by upland soil treatment; set-up: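 0-5 growth inhibition grade; 5 = over 90%; 4 = 70-90%; 3 = 50-70%; 2 = 30-50%; 1 = 10-30%; 0 = under 10%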; conditions: dose 100 g active ingredient per 10 ares, examined on the 21st day after treatment, standards of Table 44
Summary of the method: as §2
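Throughout, for Herbicidal effect index, Eo: 0-5 growth inhibition grade; 5 = over 90%; 4 = 70-90%; 3 = 50-70%; 2 = 30-50%; 1 = 10-30%; 0 = under 10%.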

Row | Compound | herbicidal effects, Mo (monochoria) (monochoria (Mo) [1]) | herbicidal effects, Eo (barnyard grass) (barnyard grass (Eo) [2]) | herbicidal effects, Se (green foxtail) (green foxtail (Se)) | Mo (herbicidal effect index) (monochoria (Mo) [3]) | Or (herbicidal effect index on crop) (rice (Or)) | Eo (herbicidal effect index) (barnyard grass (Eo) [4]) | Ec (herbicidal effects, index) (barnyard grass (Ec) [5]) | herbicidal effects, Ec (barnyard grass) (barnyard grass (Ec) [6]) | Herbicidal effect index, Mo (monochoria (Mo) [1]) | Herbicidal effect index, Eo (barnyard grass (Eo) [2]) | Mo (herbicidal effects, index) (monochoria (Mo) [3]) | Or (effect on crop plant rice, index) (rice (Or)) | Eo (herbicidal effects, index) (barnyard grass (Eo) [4])
1 | CN(C(=O)Cc1ccc(F)cc1)C(c1ccc(F)cc1)c1cncnc1C(F)(F)F (racemic) [1-218] | 5 | 5 | 5 | 5 | 1 | 5 | 4 | 5 | – | – | – | – | –
2 | Cc1ccc(CC(=O)N(C)C(c2ccc(F)cc2)c2cncnc2C(F)(F)F)cc1 (racemic) [1-220] | 5 | 5 | 5 | 5 | 1 | 5 | 5 | 5 | – | – | – | – | –
3 | CCOc1ccc(CC(=O)N(C)C(c2cncnc2C(F)(F)F)C(C)C)cc1 (racemic) [Compound 1-13] | – | – | 5 | – | – | – | 5 | 5 | 5 | 5 | 5 | 1 | 5
4 | CC(C)C(c1cncnc1C(F)(F)F)N(C)C(=O)Cc1cccc(Cl)c1 (racemic) [Compound 1-21] | – | – | 5 | – | – | – | 4 | 5 | 5 | 5 | 5 | 1 | 5
5 | CC(C)C(c1cncnc1C(F)(F)F)N(C)C(=O)Cc1ccc(Cl)cc1 (racemic) [Compound 1-22] | – | – | 5 | – | – | – | 4 | 5 | 5 | 5 | 5 | 1 | 5
6 | CC(C)C(c1cncnc1C(F)(F)F)N(C)C(=O)Cc1ccc(OC(F)F)cc1 (racemic) [Compound 1-96] | – | – | 5 | – | – | – | 5 | 5 | 5 | 5 | – | – | –
7 | CCCC(c1cncnc1C(F)(F)F)N(C)C(=O)Cc1ccc(F)cc1 (racemic) [Compound 1-112] | – | – | 5 | – | – | – | 4 | 5 | 5 | 5 | – | – | –
8 | CC(C)C(c1cncnc1C(F)(F)F)N(C)C(=O)Cc1ccc(F)c(F)c1 (racemic) [Compound 1-122] | – | – | 5 | – | – | – | 4 | 5 | 5 | 5 | – | – | –
9 | CC(C)C(c1cncnc1C(F)(F)F)N(C)C(=O)COc1ccc(F)cc1 (racemic) [Compound 1-127] | – | – | 5 | – | – | – | 4 | 5 | 5 | 5 | – | – | –
10 | CC(C)C(c1cncnc1C(F)(F)F)N(C)C(=S)Cc1ccc(F)cc1 (racemic) [Compound 1-143] | 5 | 5 | 5 | – | – | – | 4 | 5 | – | – | – | – | –
11 | CC(C)C(c1cncnc1C(F)F)N(C)C(=O)Cc1ccc(F)cc1 (racemic) [Compound 1-164] | 5 | 5 | 5 | – | – | – | 4 | 5 | – | – | – | – | –
